≈ marks a conversion by molar mass, not a printed value.
Key:
[1] = system: E. coli ATCC 25922; experiment: MIC by broth microdilution, E. coli ATCC 25922, no FBS; format: cell-based; settings: Escherichia coli, ATCC25922, 35° C., 18-24 h
Experimental: (§1) Minimal inhibitory concentrations (MIC) were determined by the broth microdilution method in accordance with the Clinical and Laboratory Standards Institute (CLSI) guidelines. In brief, organism suspensions were adjusted to a 0.5 McFarland standard to yield a final inoculum between 3×10^5 and 7×10^5 colony-forming units (CFU)/mL. Drug dilutions and inocula were made in sterile, cation adjusted Mueller-Hinton Broth (Beckton Dickinson). An inoculum volume of 100 μL was added to wells containing 100 μL of broth with 2-fold serial dilutions of drug. All inoculated microdilution trays were incubated in ambient air at 35° C. for 18-24 h. […] Performance of the assay was monitored by the use of laboratory quality-control strains and levofloxacin, a compound with a defined MIC spectrum, in accordance with CLSI guidelines.

[2] = system: E. coli BW25113; experiment: MIC by broth microdilution, E. coli BW25113, no FBS; format: cell-based; settings: Escherichia coli, 35° C., 18-24 h
Experimental: as §1

[3] = system: E. coli imp mutant; experiment: MIC by broth microdilution, E. coli imp mutant; format: cell-based; settings: Escherichia coli, read-out: MIC E. coli imp mutant
Experimental: as §1

[4] = system: E. coli delta to IC mutant; experiment: MIC by broth microdilution, E. coli delta tolC mutant; format: cell-based; settings: Escherichia coli, read-out: MIC E. coli delta to IC mutant
Experimental: as §1

[5] = system: S. aureus ATCC 29213; experiment: MIC by broth microdilution, S. aureus ATCC 29213; format: cell-based; settings: Staphylococcus aureus, ATCC29213; 35° C., 18-24 h
Experimental: as §1

[6] = system: P. aeruginosa 209; experiment: MIC by broth microdilution, P. aeruginosa 209; format: cell-based; settings: Pseudomonas aeruginosa, 35° C., 18-24 h
Experimental: as §1

[7] = system: P. aeruginosa 210 delta mexAB-OprM; experiment: MIC by broth microdilution, P. aeruginosa 210 delta mexAB-OprM; format: cell-based; settings: Pseudomonas aeruginosa, read-out: MIC P. aeruginosa 210 delta mexAB-OprM
Experimental: as §1

[8] = biological target: Klebsiella pneumoniae LpxC (Klebsiella pneumoniae subsp. pneumoniae (strain ATCC 700721 / MGH 78578), UniProt A6T4N9); experiment: Inhibition Assay against Klebsiella pneumoniae LpxC (LC-MS/MS); format: biochemical; settings: 0.2 nM Kpn LpxC, 22° C., 60 minutes
Experimental: LpxC inhibition assays were performed using liquid chromatography with tandem mass spectrometry. Assays were performed, in duplicate, in opaque, 96-well microplates in a total assay volume of 50 μL. The incubation mixture contained: LpxC (0.2 nM Kpn), 0.8 μM UDP-3-O—[(R)-3-hydroxymyristoyl]-N-acetyl-glucosamine, 40 mM Bis-Tris/HCl buffer (pH 5.9), 5 mM sodium phosphate buffer (NaH2PO4/Na2HPO4, pH 7.0), 1 mM DTT, 0.1% (w/v) fatty-acid free BSA, 10% DMSO (v/v, with or without compound). The reactions were incubated at 22° C. for 60 minutes (with mild shaking), then terminated by the addition of 25 μL 0.25 N HCl. Samples were analyzed using a LC-MS system to measure native LpxC substrate and reaction product. IC50 analysis was done using GeneData Screener and a four parameter variable slope normalized to controls. Test compounds were prepared as 8-point dose-response curves (factor dilution 2) in triplicate, starting at 1 μM final concentration. Each assay plate included 6 wells used for the Z′ factor calculation, 3 as a positive control for the assay and 3 as a negative control. The robustness was calculated as the median Z′ factor for 5 plates.

Structure (SMILES)	MIC [1] [µg/mL]	MIC [2] [µg/mL]	MIC [3] [µg/mL]	MIC [4] [µg/mL]	MIC [5] [µg/mL]	MIC [6] [µg/mL]	MIC [7] [µg/mL]	IC50 [8] [nM]
O=C(c1ccc(C#CC#Cc2ccc(NCc3nc[nH]c(=O)c3O)cc2)cc1)N1CCOCC1 [Compound 97]	1 to 8 (≈ 2.2 to 17.6 µM)	< 1	< 1	< 1	> 32	> 32	> 32	10 to 100
O=c1[nH]cnc(CNc2ccc(C#Cc3ccc(CN4CCOCC4)cc3)cc2)c1O [Compound 98]	1 to 8 (≈ 2.4 to 19.2 µM)	< 1	1 to 8 (≈ 2.4 to 19.2 µM)	< 1	> 32	> 32	> 32	10 to 100
O=C(c1ccc(C#CC#Cc2ccc(NCc3nc[nH]c(=O)c3O)cc2)cc1)N1CC(O)C1 [Compound 86]	< 1	< 1	< 1	< 1	> 32	> 32	> 32	–
O=C(c1ccc(C#CC#Cc2ccc(NCc3nc[nH]c(=O)c3O)cc2)cc1)N1CCC(N2CCOCC2)CC1 [Compound 78]	> 32	1 to 8 (≈ 1.86 to 14.9 µM)	< 1	< 1	> 32	> 32	> 32	–
O=C(O)c1ccc(C#Cc2ccc(NCc3nc[nH]c(=O)c3O)cc2)cc1 [Compound 101]	> 32	> 32	> 32	1 to 8 (≈ 2.77 to 22.1 µM)	> 32	> 32	> 32	–
O=C(c1ccc(C#CC#Cc2ccc(NCc3nc[nH]c(=O)c3O)cc2)cc1)N1CCC[C@H]1CO [Compound 99]	> 32	1 to 8 (≈ 2.13 to 17.1 µM)	< 1	< 1	> 32	> 32	> 32	–
Cc1nc(C(=O)O)c(O)c(=O)n1CC(O)c1ccc(C#Cc2ccc(CN3CCOCC3)cc2)cc1 (stereo not drawn) [Compound 93]	> 32	> 32	> 32	> 32	> 32	> 32	> 32	–

From patent publication US10875832B2, “Substituted pyrimidines for treating bacterial infections” (FORGE THERAPEUTICS, INC., priority 2015, dated 2020)
